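48-hour exposure; five concentrations; linearly interpolated endpoints. GI50: concentration for 50% inhibition of growth.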 Calls of active or inactive are those of the source. No stated cut-off is given here; in the data, active = GI50 up to about 1.1 µM and inactive = higher. Residues, ends and D or L forms follow the SMILES beside them. Groups on a side chain read outwards from the residue. *: point of attachment. Cbz = O=C(OCc1ccccc1)*; Boc = CC(C)(C)OC(=O)*
Columns and labels:
Experiment in all cases: NCI-60 cell line screen, 48 h
BT-549 = test system: BT-549
KM12 = test system: KM12
SNB-19 = test system: SNB-19
SK-MEL-28 = test system: SK-MEL-28
HOP-92 = test system: HOP-92
786-0 = test system: 786-0
SW-620 = test system: SW-620
SF-268 = test system: SF-268
CAKI-1 = test system: CAKI-1
A549 = test system: A549
SK-MEL-5 = test system: SK-MEL-5
HT-29 = test system: HT-29
UO-31 = test system: UO-31
CCRF-CEM = test system: CCRF-CEM
SN12C = test system: SN12C
DU-145 = test system: DU-145
MOLT-4 = test system: MOLT-4
T47D = test system: T47D
SR = test system: SR

Row | Compound | GI50 (BT-549) | GI50 (KM12) | GI50 (SNB-19) | GI50 (SK-MEL-28) | GI50 (HOP-92) | GI50 (786-0) | GI50 (SW-620) | GI50 (SF-268) | GI50 (CAKI-1) | GI50 (A549) | GI50 (SK-MEL-5) | GI50 (HT-29) | GI50 (UO-31) | GI50 (CCRF-CEM) | GI50 (SN12C) | GI50 (DU-145) | GI50 (MOLT-4) | GI50 (T47D) | GI50 (SR)
1 | CC(C)=CCC[C@H](C)[C@H]1CC[C@@H](C)c2cc(O)c(C)cc21 | 17.9 µM (inactive) | 17.3 µM (inactive) | 16.6 µM (inactive) | 18.5 µM (inactive) | 16.7 µM (inactive) | 18.6 µM (inactive) | 23.1 µM (inactive) | 16.8 µM (inactive) | 15.7 µM (inactive) | 17.1 µM (inactive) | 16.2 µM (inactive) | 20.6 µM (inactive) | 14 µM (inactive) | 22.9 µM (inactive) | 15.9 µM (inactive) | 19.5 µM (inactive) | 21.4 µM (inactive) | 16.9 µM (inactive) | –
2 | O=C1CC(c2ccccc2)[S+]([O-])c2ccccc2N1 (centres undefined) | > 100 µM (inactive) | > 100 µM (inactive) | > 100 µM (inactive) | > 100 µM (inactive) | – | > 100 µM (inactive) | – | > 100 µM (inactive) | > 100 µM (inactive) | > 100 µM (inactive) | > 100 µM (inactive) | > 100 µM (inactive) | > 100 µM (inactive) | > 100 µM (inactive) | > 100 µM (inactive) | > 100 µM (inactive) | > 100 µM (inactive) | > 100 µM (inactive) | 65.2 µM (inactive)
3 | Cc1ccc(/N=N/C(=N/NC(=O)c2ccccc2)c2ccc(N(CCC#N)CCC#N)cc2C)cc1 | 48.3 µM (inactive) | 29.3 µM (inactive) | 35 µM (inactive) | – | – | 33.3 µM (inactive) | – | 41.9 µM (inactive) | > 100 µM (inactive) | 34.3 µM (inactive) | 13.4 µM (inactive) | 19 µM (inactive) | > 100 µM (inactive) | 30.3 µM (inactive) | 40.8 µM (inactive) | 43.2 µM (inactive) | 61.1 µM (inactive) | 37.4 µM (inactive) | 5.79 µM (inactive)
4 | O=C(CSc1nc2ccc(Cl)cc2c(=O)n1-c1ccccc1)N/N=C1\C(=O)Nc2ccc(F)cc21 | 1.85 µM (inactive) | 3.13 µM (inactive) | 2.97 µM (inactive) | 3.05 µM (inactive) | 2.49 µM (inactive) | 2.1 µM (inactive) | 2.33 µM (inactive) | 2.82 µM (inactive) | 4.81 µM (inactive) | 2.37 µM (inactive) | 3.13 µM (inactive) | 2.2 µM (inactive) | 0.189 µM (active) | 2.7 µM (inactive) | 2.08 µM (inactive) | 2.16 µM (inactive) | 2.88 µM (inactive) | 2.07 µM (inactive) | –
5 | CN1C(=O)C2CCC(=O)N2c2cccnc21 (centres undefined) | > 100 µM (inactive) | > 100 µM (inactive) | > 100 µM (inactive) | > 100 µM (inactive) | – | > 100 µM (inactive) | > 100 µM (inactive) | > 100 µM (inactive) | > 100 µM (inactive) | > 100 µM (inactive) | > 100 µM (inactive) | > 100 µM (inactive) | > 100 µM (inactive) | > 100 µM (inactive) | > 100 µM (inactive) | > 100 µM (inactive) | > 100 µM (inactive) | > 100 µM (inactive) | > 100 µM (inactive)
6 | CCN(CCCN(CC)C(=O)N[C@@H](Cc1ccccc1)C(=O)NC)C(=O)N[C@@H](Cc1ccccc1)C(=O)NC | > 100 µM (inactive) | > 100 µM (inactive) | > 100 µM (inactive) | > 100 µM (inactive) | > 100 µM (inactive) | > 100 µM (inactive) | > 100 µM (inactive) | > 100 µM (inactive) | > 100 µM (inactive) | > 100 µM (inactive) | > 100 µM (inactive) | > 100 µM (inactive) | > 100 µM (inactive) | – | – | > 100 µM (inactive) | – | > 100 µM (inactive) | > 100 µM (inactive)
7 | C=CCCC1CCCCNC1=S (centres undefined) | > 10 µM (inactive) | > 10 µM (inactive) | > 10 µM (inactive) | > 10 µM (inactive) | – | > 10 µM (inactive) | > 10 µM (inactive) | > 10 µM (inactive) | > 10 µM (inactive) | > 10 µM (inactive) | > 10 µM (inactive) | > 10 µM (inactive) | > 10 µM (inactive) | > 10 µM (inactive) | > 10 µM (inactive) | > 10 µM (inactive) | > 10 µM (inactive) | > 10 µM (inactive) | > 10 µM (inactive)
8 | O=c1[nH]c(=O)n(C2CC(O)C(CO)O2)cc1OC/C=C/Cc1ccccc1 (centres undefined) | > 100 µM (inactive) | > 100 µM (inactive) | > 100 µM (inactive) | > 100 µM (inactive) | – | > 100 µM (inactive) | – | > 100 µM (inactive) | > 100 µM (inactive) | > 100 µM (inactive) | > 100 µM (inactive) | > 100 µM (inactive) | > 100 µM (inactive) | > 100 µM (inactive) | > 100 µM (inactive) | > 100 µM (inactive) | > 100 µM (inactive) | > 100 µM (inactive) | > 100 µM (inactive)
9 | N#CC(=N)c1ncn(-c2ccc(N)cc2)c1N | > 100 µM (inactive) | > 100 µM (inactive) | > 100 µM (inactive) | > 100 µM (inactive) | – | > 100 µM (inactive) | > 100 µM (inactive) | > 100 µM (inactive) | > 100 µM (inactive) | > 100 µM (inactive) | > 100 µM (inactive) | > 100 µM (inactive) | > 100 µM (inactive) | > 100 µM (inactive) | > 100 µM (inactive) | > 100 µM (inactive) | > 100 µM (inactive) | > 100 µM (inactive) | > 100 µM (inactive)
10 | COC(=O)c1cc(-c2c[nH]cc2C(=O)OCc2ccccc2)cn1S(=O)(=O)c1ccc(C)cc1 | 71.4 µM (inactive) | > 100 µM (inactive) | > 100 µM (inactive) | – | – | > 100 µM (inactive) | – | > 100 µM (inactive) | > 100 µM (inactive) | > 100 µM (inactive) | 4.16 µM (inactive) | > 100 µM (inactive) | > 100 µM (inactive) | > 100 µM (inactive) | > 100 µM (inactive) | > 100 µM (inactive) | > 100 µM (inactive) | 4.71 µM (inactive) | > 100 µM (inactive)
11 | CC(C)CC(NC(=O)OCc1ccccc1)C(=O)NCCCCC(NC(=O)C(CCCCNC(=O)C(CC(C)C)NC(=O)OCc1ccccc1)NC(=O)C(CCCCNC(=O)C(CC(C)C)NC(=O)OCc1ccccc1)NC(=O)C(CCCCNC(=O)C(CC(C)C)NC(=O)OCc1ccccc1)NC(=O)OC(C)(C)C)C(=O)O (centres undefined) (Boc-K([Leu-Cbz])K([Leu-Cbz])K([Leu-Cbz])K([Leu-Cbz])-OH; configuration not given here) | > 25 µM (inactive) | – | > 25 µM (inactive) | > 25 µM (inactive) | – | > 25 µM (inactive) | > 25 µM (inactive) | > 25 µM (inactive) | > 25 µM (inactive) | > 25 µM (inactive) | > 25 µM (inactive) | > 25 µM (inactive) | > 25 µM (inactive) | > 25 µM (inactive) | > 25 µM (inactive) | > 25 µM (inactive) | > 25 µM (inactive) | > 25 µM (inactive) | > 25 µM (inactive)

Reference: ChEMBL document CHEMBL1201862, “PubChem BioAssay data set” (2004)
